One assay relates to Aβ42. The assay can be described thus: Cellular αlisa assay in SKNBE2 cells, Aβ42. In kind it is cell-based, human. The settings on record: SKNBE2 cells expressing hAPP695, 18 hours incubation; for IC50: Homo sapiens, SKNBE2, 18 h, read-out: Cellular αlisa assay in SKNBE2 cells Aβ42 pIC50 (converted). The method, then:
(§1) In two αlisa assays the levels of Aβtotal and Aβ42 produced and secreted into the medium of human neuroblastoma SKNBE2 cells are quantified. The assay is based on the human neuroblastoma SKNBE2 expressing the wild type Amyloid Precursor Protein (hAPP695). The compounds are diluted and added to these cells, incubated for 18 hours and then measurements of Aβ42 and Aβtotal are taken. Aβtotal and Aβ42 are measured by sandwich αlisa. αlisa is a sandwich assay using biotinylated antibody AbN/25 attached to streptavidin coated beads and antibody Ab4G8 or cAb42/26 conjugated acceptor beads for the detection of Aβtotal and Aβ42 respectively. In the presence of Aβtotal or Aβ42, the beads come into close proximity. The excitation of the Donor beads provokes the release of singlet oxygen molecules that triggers a cascade of energy transfer in the Acceptor beads, resulting in light emission. Light emission is measured after 1 hour incubation (excitation at […] and emission at 615 nm).
(§2) From this an […] value (inhibitory concentration causing 50% inhibition of activity) can be obtained.

For the next assay, the system named is Aβtotal. Nature of the assay: Cellular αlisa assay in SKNBE2 cells, Aβtotal. In kind it is cell-based, human. To be noted: SKNBE2 cells expressing hAPP695, 18 hours incubation; for IC50: Homo sapiens, SKNBE2, 18 h, read-out: Cellular αlisa assay in SKNBE2 cells Aβtotal pIC50 (converted). The method, then:
as §1, §2

Another assay concerns the target BACE1 (Homo sapiens, UniProt P56817). Nature of the assay: Biochemical FRET based assay. The settings on record: Biochemical FRET based assay pIC50, recombinant BACE1 1 μg/ml, 120 min, room temperature, pH 5.0. The source says: This assay is a Fluorescence Resonance Energy Transfer Assay (FRET) based assay. The substrate for this assay is an APP derived 13 amino acids peptide that contains the ‘Swedish’ Lys-Met/Asn-Leu mutation of the amyloid precursor protein (APP) β-secretase cleavage site. This substrate also contains two fluorophores: (7-methoxy-coumarin-4-yl) acetic acid (Mca) is a fluorescent donor with excitation wavelength at 320 nm and emission at 405 nm and 2,4-Dinitrophenyl (Dnp) is a proprietary quencher acceptor. […] Upon cleavage by BACE1, the fluorophore Mca is separated from the quenching group Dnp, restoring the full fluorescence yield of the donor. The increase in fluorescence is linearly related to the rate of proteolysis (Koike H et al. J. Biochem. 1999, 126, 235-242).
Briefly in a 384-well format recombinant BACE1 protein in a final concentration of 1 μg/ml is incubated for 120 min at room temperature with 10 μm substrate in incubation buffer (40 mM Citrate buffer pH 5.0, 0.04% PEG, 4% DMSO) in the absence or presence of compound. Next the amount of proteolysis is directly measured by fluorescence measurement at T=0 and T=120 (excitation at 320 nm and emission at 405 nm). Results are expressed in RFU, as difference between T120 and T0
From this an IC50 value (inhibitory concentration causing 50% inhibition of activity) can be obtained.

Chain of BACE1 (P56817 46-501): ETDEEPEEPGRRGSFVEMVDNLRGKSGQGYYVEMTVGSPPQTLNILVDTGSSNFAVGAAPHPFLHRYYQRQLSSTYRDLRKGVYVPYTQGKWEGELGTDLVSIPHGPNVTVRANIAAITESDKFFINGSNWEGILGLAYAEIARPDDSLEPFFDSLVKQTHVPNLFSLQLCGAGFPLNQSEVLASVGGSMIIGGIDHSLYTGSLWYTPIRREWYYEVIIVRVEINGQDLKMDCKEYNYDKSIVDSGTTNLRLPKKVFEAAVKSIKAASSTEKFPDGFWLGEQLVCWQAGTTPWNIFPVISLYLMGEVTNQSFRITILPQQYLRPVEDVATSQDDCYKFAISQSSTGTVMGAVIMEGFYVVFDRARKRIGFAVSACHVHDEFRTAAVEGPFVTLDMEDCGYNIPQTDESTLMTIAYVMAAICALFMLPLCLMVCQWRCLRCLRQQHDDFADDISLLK

For the compound `CC1(c2cccc(-c3cncnc3)c2)Cn2cccc2C(N)=N1` (racemic) [Compound 1, rac-3-methyl-3-(3-pyrimidin-5-yl-phenyl)-3,4-dihydro-pyrrolo[1,2-a]pyrazin-1-ylamine], the results for the IC50 in the assay on Aβ42, in the assay on Aβtotal and on BACE1 were 3.98 µM, 3.89 µM and 12 µM, respectively.
For `CC1(c2cccc(-c3cc(Cl)cc(Cl)c3)c2)Cn2cccc2C(N)=N1` (racemic) [Compound 2, rac-3-(3′,5′-dichloro-biphenyl-3-yl)-3-methyl-3,4-dihydro-pyrrolo[1,2-a]pyrazin-1-ylamine], the IC50 with Aβ42 was 4.47 µM; with Aβtotal, 4.27 µM; at BACE1 it was 3.72 µM.
For `CC1(c2cccc(NC(=O)c3ccc(Cl)cn3)c2)Cn2cccc2C(N)=N1` (racemic) [Compound 3, rac-5-chloro-pyridine-2-carboxylic acid[3-(1-amino-3-methyl-3,4-dihydro-pyrrolo[1,2-a]pyrazin-3-ye-phenyl]-amide], in that order: 0.1 µM, 0.0955 µM and 0.135 µM.
Taken in the same sequence, the figures for `COc1cnc(C(=O)Nc2cccc(C3(C)Cn4cccc4C(N)=N3)c2)cn1` (racemic) [Compound 4, rac-5-methoxy-pyrazine-2-carboxylic acid [3-(1-amino-3-methyl-3,4-dihydro-pyrrolo[1,2-a]pyrazin-3-ye-phenyl]-amide] were 0.11 µM, 0.0933 µM and 0.234 µM.
As for `COc1cnc(C(=O)Nc2ccc(F)c(C3(C(F)F)Cn4cccc4C(N)=N3)c2)cn1` (racemic) [Compound 11], the IC50 was 0.011 µM in the assay with Aβ42, 0.00955 µM with Aβtotal and 0.107 µM on BACE1.
With `COc1cnc(C(=O)Nc2ccc(F)c(C3(C(F)F)Cn4cccc4C(N)=N3)c2)cn1` (single isomer, unassigned) [Compound 12], the “Cellular αlisa assay in SKNBE2 cells Aβ42 pIC50” value in the assay on Aβ42 is reported as 7.85. Also, the “Cellular αlisa assay in SKNBE2 cells Aβtotal pIC50” value in the assay with Aβtotal stood at 7.9. At BACE1, the IC50 is 0.0372 µM.
For `COc1cnc(C(=O)Nc2ccc(F)c(C3(C(F)F)Cn4cccc4C(N)=N3)c2)cn1` (single isomer, unassigned) [Compound 13], in that order: 5.63, 5.62 and 18.2 µM.
Taken in the same sequence, the figures for `COCC1(c2cc(NC(=O)c3ccn(C(F)F)n3)ccc2F)Cn2cc(C(F)(F)F)cc2C(N)=N1` (single isomer, unassigned) [Compound 31] were less than 5, less than 5 and more than 50.1 µM.
For `COCC1(c2cc(NC(=O)c3ccn(C(F)F)n3)ccc2F)Cn2cc(C(F)(F)F)cc2C(N)=N1` (single isomer, unassigned) [Compound 32], in that order: 6.54, 6.53 and 1.74 µM.
As for `C[C@@]1(c2cc(NC(=O)c3ccc(Cl)cn3)ccc2F)Cn2cccc2C(N)=N1` [Compound 5, (R)-5-chloro-pyridine-2-carboxylic acid [3-(1-amino-3-methyl-3,4-dihydro-pyrrolo[1,2-a]pyrazin-3-yl)-4-fluoro-phenyl]-amide], the IC50 was 0.00295 µM in the assay on Aβ42, 0.00282 µM with Aβtotal and 0.0372 µM at BACE1.
For `COc1cnc(C(=O)Nc2ccc(F)c([C@]3(C)Cn4cc(F)cc4C(N)=N3)c2)cn1` [Compound 8, (R)-5-methoxy-pyrazine-2-carboxylic acid [3-(1-amino-7-fluoro-3-methyl-3,4-dihydro-pyrrolo[1,2-a]pyrazin-3-yl)-4-fluoro-phenyl]-amide], in that order: 0.00219 µM, 0.00204 µM and 0.0331 µM.
Taken in the same sequence, the figures for `C[C@@]1(c2cc(NC(=O)c3ccc(C#N)cn3)ccc2F)Cn2cc(C(F)(F)F)cc2C(N)=N1` [Compound 9] were 0.012 µM, 0.0107 µM and 0.0339 µM.
For `C[C@@]1(c2cc(NC(=O)c3ccn(C(F)F)n3)ccc2F)Cn2cc(C(F)(F)F)cc2C(N)=N1` [Compound 10], in that order: 0.0135 µM, 0.0126 µM and 0.0479 µM.
On to `NC1=NC(c2cc(NC(=O)c3ccc(F)cn3)ccc2F)(C(F)F)Cn2cccc21` (stereo not drawn) [Compound 14], for which the IC50 is 0.0372 µM in the assay on Aβ42, 0.0355 µM with Aβtotal and 0.174 µM at BACE1.
For `C[C@@]1(c2cc(NC(=O)c3ncc(C#N)cc3F)ccc2F)Cn2cc(C(F)(F)F)cc2C(N)=N1` [Compound 15], in that order: 0.00933 µM, 0.00891 µM and 0.0363 µM.
For `Cc1nc(C(=O)Nc2ccc(F)c([C@]3(C)Cn4cc(F)cc4C(N)=N3)c2)co1` [Compound 16], in that order: 0.0204 µM, 0.0195 µM and 0.049 µM.
`Cc1nc(C(=O)Nc2ccc(F)c([C@]3(C)Cn4cc(F)cc4C(N)=N3)c2)c(C)o1` [Compound 17]: the IC50 with Aβ42 was 0.0324 µM; in the assay on Aβtotal, 0.0339 µM; on BACE1, 0.0676 µM.
For `Cc1nc(C(=O)Nc2ccc(F)c([C@]3(C)Cn4cc(F)cc4C(N)=N3)c2)c(C(F)(F)F)o1` [Compound 18], in that order: 0.0316 µM, 0.0309 µM and 0.0832 µM.
Taken in the same sequence, the figures for `Cc1nc(C(=O)Nc2ccc(F)c([C@]3(C)Cn4cc(C(F)(F)F)cc4C(N)=N3)c2)c(C)o1` [Compound 19] were 0.0661 µM, 0.0631 µM and 0.178 µM.
For the compound `Cc1nc(C(=O)Nc2ccc(F)c([C@]3(C)Cn4cc(C(F)(F)F)cc4C(N)=N3)c2)co1` [Compound 20], the IC50 in the assay on Aβ42 was 0.024 µM; with Aβtotal, 0.0234 µM; on BACE1 it was 0.102 µM.
With `Cc1nc(C(=O)Nc2ccc(F)c([C@]3(C)Cn4cc(C(F)(F)F)cc4C(N)=N3)c2)co1` [Compound 21], in the assay with Aβ42, the “Cellular αlisa assay in SKNBE2 cells Aβ42 pIC50” value is reported as 7.83. Further, the “Cellular αlisa assay in SKNBE2 cells Aβtotal pIC50” value in the assay with Aβtotal came out at 7.79. On BACE1, the IC50 is 0.0955 µM.
For `C[C@@]1(c2cc(NC(=O)c3ccsn3)ccc2F)Cn2cc(C(F)(F)F)cc2C(N)=N1` [Compound 22], the IC50 in the assay on Aβ42 was 0.049 µM; in the assay on Aβtotal it was 0.0479 µM; on BACE1, 0.224 µM.
As for `Cc1nc(C(=O)Nc2ccc(F)c([C@]3(C)Cn4cc(C(F)(F)F)cc4C(N)=N3)c2)c(C(F)(F)F)o1` [Compound 23], the IC50 is 0.0759 µM in the assay with Aβ42, 0.0776 µM in the assay on Aβtotal and 0.182 µM on BACE1.
As for `COCC1(c2cc(NC(=O)c3cnc(OC)cn3)ccc2F)Cn2cc(C(F)(F)F)cc2C(N)=N1` (stereo not drawn) [Compound 24], the “Cellular αlisa assay in SKNBE2 cells Aβ42 pIC50” value in the assay with Aβ42 is 6.30. Further, in the assay with Aβtotal, the “Cellular αlisa assay in SKNBE2 cells Aβtotal pIC50” value stood at 6.35. The IC50 on BACE1 was 3.16 µM.
For `COCC1(c2cc(NC(=O)c3ccc(F)cn3)ccc2F)Cn2cc(C(F)(F)F)cc2C(N)=N1` (stereo not drawn) [Compound 25], in that order: 6.04, 6.07 and 5.01 µM.
Consider `COCC1(c2cc(NC(=O)c3ccn(C(F)F)n3)ccc2F)Cn2cc(C(F)(F)F)cc2C(N)=N1` (stereo not drawn) [Compound 26], for which the IC50 in the assay on Aβ42 was 0.501 µM; in the assay with Aβtotal, 0.537 µM; on BACE1, 2.88 µM.
Consider `COCC1(c2cc(NC(=O)c3cnc(OC)cn3)ccc2F)Cn2cc(C(F)(F)F)cc2C(N)=N1` (stereo not drawn) [Compound 27], for which, in the assay on Aβ42, the “Cellular αlisa assay in SKNBE2 cells Aβ42 pIC50” value is less than 5. The “Cellular αlisa assay in SKNBE2 cells Aβtotal pIC50” value in the assay with Aβtotal was less than 5. Moreover, on BACE1, the IC50 is more than 50.1 µM.
As to `COCC1(c2cc(NC(=O)c3cnc(OC)cn3)ccc2F)Cn2cc(C(F)(F)F)cc2C(N)=N1` (stereo not drawn) [Compound 28], the “Cellular αlisa assay in SKNBE2 cells Aβ42 pIC50” value in the assay on Aβ42 is 6.53. Moreover, the “Cellular αlisa assay in SKNBE2 cells Aβtotal pIC50” value in the assay with Aβtotal is on record as 6.52. Moreover, on BACE1, the IC50 is 1.91 µM.
For `COCC1(c2cc(NC(=O)c3ccc(F)cn3)ccc2F)Cn2cc(C(F)(F)F)cc2C(N)=N1` (stereo not drawn) [Compound 29], in that order: 6.32, 6.33 and 2.04 µM.

Values taken from patent US9845326B2, “Substituted 3,4-dihydropyrrolo[1,2-A]pyrazines as beta-secretase (BACE) inhibitors” (priority 2011, dated 2017).
